The source made the active and inactive calls.

Assay [1] addresses G2/mitotic-specific cyclin-B1 (Homo sapiens, UniProt P14635). Description: G2/M cell cycle arrest in HeLa, late-stage follow-up, mechanism study for Wee1 degradation inhibitor project, FACS, panel member Cyclin B Degradation (AID 2088).
A further assay addresses Wee1-like protein kinase (Homo sapiens, UniProt P30291). Put plainly: G2/M cell cycle arrest in HeLa, late-stage follow-up, mechanism study for Wee1 degradation inhibitor project, FACS, panel member Wee1 Degradation (AID 2088).
For another assay, the target named is T1, Hexokinase-1 (Homo sapiens, UniProt P19367).
T1 sequence (P19367 whole entry): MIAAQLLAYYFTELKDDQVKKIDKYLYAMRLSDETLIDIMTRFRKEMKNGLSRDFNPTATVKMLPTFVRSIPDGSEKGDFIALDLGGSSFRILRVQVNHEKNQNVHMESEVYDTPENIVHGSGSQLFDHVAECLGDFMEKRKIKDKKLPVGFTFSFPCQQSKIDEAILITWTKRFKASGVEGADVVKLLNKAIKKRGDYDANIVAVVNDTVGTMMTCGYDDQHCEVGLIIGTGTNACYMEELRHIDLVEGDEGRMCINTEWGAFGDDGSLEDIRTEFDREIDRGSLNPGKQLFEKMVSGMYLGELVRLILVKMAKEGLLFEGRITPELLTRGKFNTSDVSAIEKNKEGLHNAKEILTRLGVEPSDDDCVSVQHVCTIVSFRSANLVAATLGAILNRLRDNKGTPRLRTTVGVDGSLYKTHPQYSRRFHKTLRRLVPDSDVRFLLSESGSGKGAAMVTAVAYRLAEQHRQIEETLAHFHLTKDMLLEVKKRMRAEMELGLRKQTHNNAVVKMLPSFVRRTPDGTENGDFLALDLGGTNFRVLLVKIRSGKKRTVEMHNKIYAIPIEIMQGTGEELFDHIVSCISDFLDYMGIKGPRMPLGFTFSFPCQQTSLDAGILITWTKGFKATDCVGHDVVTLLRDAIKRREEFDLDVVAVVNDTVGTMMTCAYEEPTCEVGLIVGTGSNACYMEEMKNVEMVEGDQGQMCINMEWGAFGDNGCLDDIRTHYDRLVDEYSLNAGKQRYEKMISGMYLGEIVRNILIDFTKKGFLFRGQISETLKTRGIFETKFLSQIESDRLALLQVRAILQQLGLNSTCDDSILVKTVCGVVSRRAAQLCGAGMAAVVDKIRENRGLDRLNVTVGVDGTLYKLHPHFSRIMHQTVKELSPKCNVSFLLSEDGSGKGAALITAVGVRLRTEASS
Description: SAR analysis of small molecule inhibitors of hexokinase domain containing I (HKDC1) in the hexokinase 1 selectivity assay. [Related pubchem assays (depositor defined):AID493160, AID493190]. Format: functional.

Assay [2] addresses T2, Hexokinase HKDC1 (Homo sapiens, UniProt Q2TB90).
T2 sequence (Q2TB90 whole entry): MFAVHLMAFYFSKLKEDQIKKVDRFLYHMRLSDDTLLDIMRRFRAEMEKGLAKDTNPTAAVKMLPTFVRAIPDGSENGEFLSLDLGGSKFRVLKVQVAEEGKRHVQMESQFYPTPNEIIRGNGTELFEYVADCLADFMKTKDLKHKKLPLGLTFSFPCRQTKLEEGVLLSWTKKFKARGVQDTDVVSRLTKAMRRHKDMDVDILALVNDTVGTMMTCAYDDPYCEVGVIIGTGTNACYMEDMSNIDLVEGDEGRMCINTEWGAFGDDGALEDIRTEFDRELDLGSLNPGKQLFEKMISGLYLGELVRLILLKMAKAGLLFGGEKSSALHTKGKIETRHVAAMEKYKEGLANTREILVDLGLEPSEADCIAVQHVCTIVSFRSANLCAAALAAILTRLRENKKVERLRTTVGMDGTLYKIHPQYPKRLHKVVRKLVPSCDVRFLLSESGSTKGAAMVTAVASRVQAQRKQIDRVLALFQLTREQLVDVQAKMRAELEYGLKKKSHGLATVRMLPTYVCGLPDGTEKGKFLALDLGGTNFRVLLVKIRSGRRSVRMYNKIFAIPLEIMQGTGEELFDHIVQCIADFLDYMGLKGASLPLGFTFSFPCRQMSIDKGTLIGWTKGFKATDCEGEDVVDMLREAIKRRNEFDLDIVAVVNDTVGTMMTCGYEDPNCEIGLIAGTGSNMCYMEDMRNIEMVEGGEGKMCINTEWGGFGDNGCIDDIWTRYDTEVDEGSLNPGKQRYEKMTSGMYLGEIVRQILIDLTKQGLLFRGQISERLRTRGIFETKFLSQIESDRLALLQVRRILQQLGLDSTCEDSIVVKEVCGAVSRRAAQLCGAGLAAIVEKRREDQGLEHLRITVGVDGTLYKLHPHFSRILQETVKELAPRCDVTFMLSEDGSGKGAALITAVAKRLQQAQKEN
Put plainly: HKDC1 hexokinase inhibitors, dose response, biochemical, W721R variant (AID 504729). Format: functional.

Assay [3] concerns the target T2, Hexokinase HKDC1. Description: SAR analysis of small molecule inhibitors of hexokinase domain containing I (HKDC1). [Related pubchem assays (depositor defined):AID493160, AID493190]. Format: functional.
Assay [4] deals with T3, Voltage-gated N-type calcium channel alpha-1B subunit/Amyloid beta A4 precursor protein-binding family A member 1 (Homo sapiens, UniProt Q00975+Q02410). Put plainly: disruptors of Mint-PDZ/N-type channel peptide interaction – biochemical, HTRF, SAR follow-up (AID 2489). Format: functional.
Assay [5] has as its target T3, Voltage-gated N-type calcium channel alpha-1B subunit/Amyloid beta A4 precursor protein-binding family A member 1. Description: disruptors of Mint-PDZ/N-type channel peptide interaction – biochemical, HTRF, set 2, SAR follow-up (AID 434980). Format: functional. Background: TR-FRET usually uses a lanthanide donor and a delayed reading to cut background.
In the next assay the target is X-box-binding protein 1 (Homo sapiens, UniProt P17861). Format: functional, Cricetulus griseus.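 Note: confirmatory dose-response counter-screen serving a CHOP assay.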
Assay [6] has as its target T4, Tyrosine-protein phosphatase non-receptor type 7 (Homo sapiens, UniProt P35236).
T4 sequence (P35236 whole entry): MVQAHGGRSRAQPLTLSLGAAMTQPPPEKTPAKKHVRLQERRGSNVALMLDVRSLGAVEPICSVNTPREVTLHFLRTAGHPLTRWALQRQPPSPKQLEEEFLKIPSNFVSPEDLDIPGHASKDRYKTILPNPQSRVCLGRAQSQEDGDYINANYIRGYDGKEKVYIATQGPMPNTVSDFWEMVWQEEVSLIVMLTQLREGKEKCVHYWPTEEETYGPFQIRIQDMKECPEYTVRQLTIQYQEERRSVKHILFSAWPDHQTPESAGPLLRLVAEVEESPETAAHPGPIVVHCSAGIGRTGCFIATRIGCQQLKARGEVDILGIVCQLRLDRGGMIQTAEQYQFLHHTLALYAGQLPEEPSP
Format: functional.

In assay [7] the target is Glyceraldehyde-3-phosphate dehydrogenase (Homo sapiens, UniProt P04406).
Assay [8] has as its target T5, Dual specificity protein phosphatase 6 (Rattus norvegicus, UniProt Q64346).
T5 sequence (Q64346 whole entry): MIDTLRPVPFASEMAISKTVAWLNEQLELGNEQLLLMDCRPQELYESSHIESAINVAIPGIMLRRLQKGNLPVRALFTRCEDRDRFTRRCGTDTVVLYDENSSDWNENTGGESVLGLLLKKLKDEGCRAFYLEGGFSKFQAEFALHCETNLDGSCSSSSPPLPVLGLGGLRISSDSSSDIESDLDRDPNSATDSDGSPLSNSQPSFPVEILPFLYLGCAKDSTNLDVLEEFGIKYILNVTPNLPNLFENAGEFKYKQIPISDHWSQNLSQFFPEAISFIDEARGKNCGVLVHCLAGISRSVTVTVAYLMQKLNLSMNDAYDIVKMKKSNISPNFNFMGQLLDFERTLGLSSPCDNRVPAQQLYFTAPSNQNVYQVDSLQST

Assay [9] has as its target T5, Dual specificity protein phosphatase 6. Format: functional.
For assay [10], the target named is Scavenger receptor class B member 1 (Mus musculus, UniProt Q61009). Put plainly: inhibitors of SR-BI mediated HDL lipid uptake, dose response, ldlA[mSR-BI] cells, fluorescence, cherry pick (AID 493194).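 Note: cellular uptake of fluorescent DiI-labeled HDL measured as cell fluorescence.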 Format: functional, cell-based.
Chain of Scavenger receptor class B member 1 (Q61009 whole entry): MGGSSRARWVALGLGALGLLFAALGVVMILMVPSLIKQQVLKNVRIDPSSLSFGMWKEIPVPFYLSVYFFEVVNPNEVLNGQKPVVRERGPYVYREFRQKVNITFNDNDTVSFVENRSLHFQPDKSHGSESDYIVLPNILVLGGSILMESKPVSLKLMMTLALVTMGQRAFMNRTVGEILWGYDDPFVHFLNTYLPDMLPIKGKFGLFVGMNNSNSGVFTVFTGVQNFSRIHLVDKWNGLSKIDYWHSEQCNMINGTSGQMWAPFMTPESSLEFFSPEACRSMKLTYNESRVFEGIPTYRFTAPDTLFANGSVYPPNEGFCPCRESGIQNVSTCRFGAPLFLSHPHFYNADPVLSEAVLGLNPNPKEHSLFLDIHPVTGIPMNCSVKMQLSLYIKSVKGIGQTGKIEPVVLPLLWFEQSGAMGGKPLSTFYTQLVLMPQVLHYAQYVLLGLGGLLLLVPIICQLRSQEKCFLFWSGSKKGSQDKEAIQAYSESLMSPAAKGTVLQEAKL

T3 sequence (Q00975 whole entry): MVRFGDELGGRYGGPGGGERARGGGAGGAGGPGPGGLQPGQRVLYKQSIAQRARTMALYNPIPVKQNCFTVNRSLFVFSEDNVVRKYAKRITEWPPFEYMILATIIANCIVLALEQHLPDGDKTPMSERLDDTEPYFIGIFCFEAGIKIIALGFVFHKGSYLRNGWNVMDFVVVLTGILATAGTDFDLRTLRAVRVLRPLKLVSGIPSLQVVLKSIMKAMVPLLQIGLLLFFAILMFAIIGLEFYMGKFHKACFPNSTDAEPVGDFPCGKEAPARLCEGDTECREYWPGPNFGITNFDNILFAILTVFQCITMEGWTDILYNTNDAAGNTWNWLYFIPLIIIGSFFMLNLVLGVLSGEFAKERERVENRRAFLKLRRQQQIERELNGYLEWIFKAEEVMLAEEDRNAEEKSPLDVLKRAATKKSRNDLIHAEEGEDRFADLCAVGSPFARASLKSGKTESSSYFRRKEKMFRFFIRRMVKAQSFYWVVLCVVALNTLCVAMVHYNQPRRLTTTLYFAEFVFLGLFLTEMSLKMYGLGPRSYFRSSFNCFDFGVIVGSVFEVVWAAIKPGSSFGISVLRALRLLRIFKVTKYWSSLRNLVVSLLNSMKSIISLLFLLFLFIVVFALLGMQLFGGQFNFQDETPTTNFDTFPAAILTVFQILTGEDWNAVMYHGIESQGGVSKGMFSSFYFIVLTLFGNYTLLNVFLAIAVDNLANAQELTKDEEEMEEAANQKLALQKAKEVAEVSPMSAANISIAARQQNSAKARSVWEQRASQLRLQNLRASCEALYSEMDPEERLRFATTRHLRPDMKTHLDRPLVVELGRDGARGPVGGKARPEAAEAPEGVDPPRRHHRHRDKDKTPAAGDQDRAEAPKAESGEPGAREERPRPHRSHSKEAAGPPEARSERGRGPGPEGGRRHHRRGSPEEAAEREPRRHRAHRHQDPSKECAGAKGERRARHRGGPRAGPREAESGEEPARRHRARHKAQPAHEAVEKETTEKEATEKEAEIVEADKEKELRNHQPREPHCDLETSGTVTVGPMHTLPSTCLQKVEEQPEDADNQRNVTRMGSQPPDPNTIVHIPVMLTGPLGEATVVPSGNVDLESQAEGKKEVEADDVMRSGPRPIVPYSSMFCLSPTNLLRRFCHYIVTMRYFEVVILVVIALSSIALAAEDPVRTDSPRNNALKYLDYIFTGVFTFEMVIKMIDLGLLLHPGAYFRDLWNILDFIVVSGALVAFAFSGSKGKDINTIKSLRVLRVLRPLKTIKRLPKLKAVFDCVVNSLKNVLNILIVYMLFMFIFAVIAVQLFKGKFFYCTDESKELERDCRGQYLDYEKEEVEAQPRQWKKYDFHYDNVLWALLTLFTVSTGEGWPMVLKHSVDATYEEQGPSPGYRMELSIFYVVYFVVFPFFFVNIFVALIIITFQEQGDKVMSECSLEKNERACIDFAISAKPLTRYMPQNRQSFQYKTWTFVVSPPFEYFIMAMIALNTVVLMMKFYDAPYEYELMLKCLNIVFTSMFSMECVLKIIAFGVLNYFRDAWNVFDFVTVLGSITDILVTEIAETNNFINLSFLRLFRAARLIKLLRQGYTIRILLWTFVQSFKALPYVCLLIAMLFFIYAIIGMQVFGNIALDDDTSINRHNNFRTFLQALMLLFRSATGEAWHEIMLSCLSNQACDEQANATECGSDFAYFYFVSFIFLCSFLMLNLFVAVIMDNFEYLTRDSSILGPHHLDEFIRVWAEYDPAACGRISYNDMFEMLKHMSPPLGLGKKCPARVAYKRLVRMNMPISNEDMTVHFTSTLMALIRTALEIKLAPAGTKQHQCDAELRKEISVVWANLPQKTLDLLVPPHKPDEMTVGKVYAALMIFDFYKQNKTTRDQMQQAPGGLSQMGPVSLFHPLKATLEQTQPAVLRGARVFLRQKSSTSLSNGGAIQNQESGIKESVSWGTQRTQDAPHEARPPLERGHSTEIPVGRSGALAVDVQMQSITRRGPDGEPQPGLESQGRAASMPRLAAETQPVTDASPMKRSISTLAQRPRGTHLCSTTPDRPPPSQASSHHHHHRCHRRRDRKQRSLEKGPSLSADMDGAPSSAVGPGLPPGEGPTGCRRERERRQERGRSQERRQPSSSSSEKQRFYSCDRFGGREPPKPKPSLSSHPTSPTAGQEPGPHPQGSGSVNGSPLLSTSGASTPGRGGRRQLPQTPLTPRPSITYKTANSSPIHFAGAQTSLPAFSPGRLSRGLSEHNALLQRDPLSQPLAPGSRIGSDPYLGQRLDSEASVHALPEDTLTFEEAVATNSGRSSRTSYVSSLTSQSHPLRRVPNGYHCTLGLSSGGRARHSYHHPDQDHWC
T3 sequence (Q02410 whole entry): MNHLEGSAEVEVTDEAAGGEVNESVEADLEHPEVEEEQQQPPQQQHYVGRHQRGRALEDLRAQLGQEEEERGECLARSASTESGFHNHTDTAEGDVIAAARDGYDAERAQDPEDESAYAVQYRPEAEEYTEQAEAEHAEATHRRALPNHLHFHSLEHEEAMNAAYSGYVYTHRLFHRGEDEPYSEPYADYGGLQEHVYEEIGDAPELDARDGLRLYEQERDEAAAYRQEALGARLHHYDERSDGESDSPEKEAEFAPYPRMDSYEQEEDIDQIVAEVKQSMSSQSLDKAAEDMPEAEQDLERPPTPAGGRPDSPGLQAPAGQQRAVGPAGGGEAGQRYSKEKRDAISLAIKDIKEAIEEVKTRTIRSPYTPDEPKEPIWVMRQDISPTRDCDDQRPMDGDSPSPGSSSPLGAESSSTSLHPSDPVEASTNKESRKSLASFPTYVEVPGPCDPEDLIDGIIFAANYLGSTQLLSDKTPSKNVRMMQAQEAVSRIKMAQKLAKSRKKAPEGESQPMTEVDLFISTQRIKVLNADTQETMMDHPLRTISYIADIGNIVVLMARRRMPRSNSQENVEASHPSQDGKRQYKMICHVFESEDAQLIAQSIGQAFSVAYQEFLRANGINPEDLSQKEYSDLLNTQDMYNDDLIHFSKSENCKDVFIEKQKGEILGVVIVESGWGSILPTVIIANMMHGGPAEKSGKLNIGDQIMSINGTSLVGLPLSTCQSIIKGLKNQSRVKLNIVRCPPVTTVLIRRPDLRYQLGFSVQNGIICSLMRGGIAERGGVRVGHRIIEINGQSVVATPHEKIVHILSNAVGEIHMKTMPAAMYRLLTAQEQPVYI
Chain of Wee1-like protein kinase (P30291 whole entry): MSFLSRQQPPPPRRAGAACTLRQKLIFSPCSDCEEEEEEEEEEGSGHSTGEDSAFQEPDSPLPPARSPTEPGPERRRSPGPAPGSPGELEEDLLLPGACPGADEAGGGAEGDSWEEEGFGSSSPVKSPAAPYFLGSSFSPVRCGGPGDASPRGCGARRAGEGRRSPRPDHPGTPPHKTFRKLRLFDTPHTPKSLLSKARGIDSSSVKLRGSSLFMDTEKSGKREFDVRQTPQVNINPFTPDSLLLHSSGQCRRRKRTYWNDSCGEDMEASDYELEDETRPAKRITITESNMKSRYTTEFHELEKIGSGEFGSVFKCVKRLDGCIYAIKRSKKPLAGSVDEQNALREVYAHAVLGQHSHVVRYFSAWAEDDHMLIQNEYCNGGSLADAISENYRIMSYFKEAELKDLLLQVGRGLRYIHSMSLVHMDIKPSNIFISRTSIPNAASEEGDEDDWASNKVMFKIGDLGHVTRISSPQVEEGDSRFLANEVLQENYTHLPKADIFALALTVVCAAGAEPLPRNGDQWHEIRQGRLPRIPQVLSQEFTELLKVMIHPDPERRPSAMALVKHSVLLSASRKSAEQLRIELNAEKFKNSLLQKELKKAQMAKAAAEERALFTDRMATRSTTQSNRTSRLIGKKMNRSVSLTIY
Chain of Glyceraldehyde-3-phosphate dehydrogenase (P04406 whole entry): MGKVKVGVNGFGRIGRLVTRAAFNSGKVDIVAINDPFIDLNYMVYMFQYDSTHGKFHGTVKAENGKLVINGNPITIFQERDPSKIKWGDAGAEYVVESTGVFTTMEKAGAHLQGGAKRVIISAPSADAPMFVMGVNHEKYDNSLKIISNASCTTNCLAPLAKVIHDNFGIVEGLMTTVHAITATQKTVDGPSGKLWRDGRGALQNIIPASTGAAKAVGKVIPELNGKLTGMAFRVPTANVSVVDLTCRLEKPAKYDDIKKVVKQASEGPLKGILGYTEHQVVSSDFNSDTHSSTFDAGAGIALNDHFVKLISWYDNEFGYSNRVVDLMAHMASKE
Chain of G2/mitotic-specific cyclin-B1 (P14635 whole entry): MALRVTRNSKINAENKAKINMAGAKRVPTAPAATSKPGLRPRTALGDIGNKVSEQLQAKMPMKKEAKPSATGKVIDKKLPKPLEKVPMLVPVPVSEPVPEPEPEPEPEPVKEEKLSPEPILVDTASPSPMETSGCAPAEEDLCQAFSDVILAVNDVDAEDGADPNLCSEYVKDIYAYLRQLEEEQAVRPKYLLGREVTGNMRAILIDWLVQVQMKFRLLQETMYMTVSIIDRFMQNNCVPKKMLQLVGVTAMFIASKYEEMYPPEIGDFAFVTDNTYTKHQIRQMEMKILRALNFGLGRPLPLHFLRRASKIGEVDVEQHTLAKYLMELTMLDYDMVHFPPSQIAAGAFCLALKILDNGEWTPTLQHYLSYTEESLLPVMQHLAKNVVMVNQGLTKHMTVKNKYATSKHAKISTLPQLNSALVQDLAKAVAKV

As to `Cn1c(=O)cc(OCCCC(=O)Nc2cccc(C(F)(F)F)c2)c2ccccc21`, the EC50 (in assay [1]; on Wee1-like protein kinase) was > 49.7 µM (inactive) throughout.

Regarding `Cc1cc2nnc(SCC(=O)Nc3cc(S(=O)(=O)N4CCOCC4)ccc3Cl)n2c2ccccc12`, the IC50 at Hexokinase-1 is 3.76 µM (active); at Hexokinase HKDC1 [2], 3.16 µM (active); at Hexokinase HKDC1 [3], 3.39 µM (active).

With `O=C(NCCc1ccccc1)c1cc(-c2ccco2)nc2ccccc12`, the IC50 in [4] and in assay [5] was > 56.8 µM (inactive) throughout.

As to `Cc1nn(-c2ccc(C(F)(F)F)cn2)c(C)c1Oc1ccccc1O`, the “Absolute IC50 (XBP1)” value on X-box-binding protein 1 stood at 10 µM.

In the case of `O=C(O)C1Nc2c(F)cccc2C2C=CCC12` (stereo not drawn), the IC50 is 5.4 µM (active) in assay [6], > 100 µM (not active) in assay [7], 19.8 µM (active) in [8] and 17.2 µM (active) in [9].

As for `COC(=O)c1cn(C(=O)c2cccc3ccccc23)c2ccccc12`, the AC50 in assay [10] was 25.1 µM (active).

The EC50 is the concentration that produces a half-maximal response. A word on the IC50: it is the point on the concentration scale where inhibition reaches its midpoint. What is called AC50 is the midpoint of the concentration-response curve, whichever way the signal moves.
